Assay results reported in patent US9815851B2, “Pyrrolo carboxamides as modulators of orphan nuclear receptor RAR-related orphan receptor-gamma (RORγ, NR1F3) activity and for the treatment of chronic inflammatory and autoimmune diseases” (PHENEX PHARMACEUTICALS AG, priority 2011, dated 2017).
Like-named read-outs stand apart in the source and are kept apart here.

What was measured:
RORγ = target: T1, RORγ (UniProt P51449); test: RORγ Gal4 Reporter Gene Assay in 293T cells (firefly and renilla luciferase); assay type: cell-based, human
T1 sequence (P51449 1-518): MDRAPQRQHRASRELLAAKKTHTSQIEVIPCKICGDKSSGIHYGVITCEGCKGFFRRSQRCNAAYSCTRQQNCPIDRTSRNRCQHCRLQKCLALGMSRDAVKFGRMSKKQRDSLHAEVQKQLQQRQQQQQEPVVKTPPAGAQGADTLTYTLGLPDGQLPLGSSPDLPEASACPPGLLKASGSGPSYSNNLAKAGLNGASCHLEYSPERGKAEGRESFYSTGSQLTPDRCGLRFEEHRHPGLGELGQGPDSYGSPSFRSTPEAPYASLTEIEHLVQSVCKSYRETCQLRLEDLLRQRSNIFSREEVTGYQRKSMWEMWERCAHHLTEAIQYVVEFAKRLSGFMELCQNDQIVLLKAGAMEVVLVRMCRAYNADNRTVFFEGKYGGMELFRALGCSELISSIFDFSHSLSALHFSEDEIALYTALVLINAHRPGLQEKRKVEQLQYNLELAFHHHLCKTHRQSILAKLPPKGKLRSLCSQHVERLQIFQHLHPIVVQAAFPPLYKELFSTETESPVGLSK

[1] = target: T2, RORγ ligand binding domain (LBD) (Homo sapiens, UniProt P51449); test: TR-FRET Activity Assay (ligand sensing, RORγ-LBD / coactivator peptide interaction, LANCE); assay type: biochemical
T2 construct: made in house; host or cells: E. coli BL-21 (BL3), vector pDEST15
T2 sequence (P51449 269-508 limits assumed): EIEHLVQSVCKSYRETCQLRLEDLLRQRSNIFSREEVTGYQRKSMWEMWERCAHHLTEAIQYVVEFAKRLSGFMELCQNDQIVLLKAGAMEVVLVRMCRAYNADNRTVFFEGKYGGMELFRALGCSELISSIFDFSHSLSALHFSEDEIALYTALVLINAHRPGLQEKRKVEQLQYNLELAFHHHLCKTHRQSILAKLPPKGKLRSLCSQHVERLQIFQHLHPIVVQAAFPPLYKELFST

[2] = second value of the cell, Gal4 reporter gene assay in 293T cells, firefly luciferase
[3] = third value of the cell, Gal4 reporter gene assay in 293T cells, renilla normalised luciferase
[4] = first value of the cell FRET/FF/REN, TR-FRET activity assay, read-out: pIC50 (FRET) (converted)

pIC50 (FF) (RORγ; [2])	pIC50 (REN) (RORγ; [3])	IC50 [1, 4] [nM]	SMILES	pIC50 (FF) (RORγ)	pIC50 (REN) (RORγ)	IC50 [1] [nM]
7.1	7.1	1000	Cc1c(C(=O)NC2CCOCC2)cc(-c2cc(C(C)(C)O)cc(C3(C)CC3)c2)n1CC1CCCCC1 [1/43]	–	–	–
–	–	–	COC(C)(C)c1cc(-c2cc(C(=O)NC3CCOCC3)c(C)n2CC2CCCCC2)cc(C2(C)CC2)c1 [1/44]	6.3/7.4/7.3	6.3/7.4/7.3	501
5.6	5.8	1000	Cc1c(C(N)=O)cc(-c2ccc(C(O)(C(F)(F)F)C(F)(F)F)cc2)n1CC1CCCCC1 [1/45]	–	–	–
–	–	–	COCCNC(=O)c1cc(-c2cc(C(C)(C)C)c(O)c(C(C)(C)C)c2)n(CC2CCCCC2)c1C [1/46]	6.5/6.5/6.5	6.5/6.5/6.5	316
< 4.7	< 4.7	3980	Cc1c(C(N)=O)cc(-c2cccc(C(O)(C(F)(F)F)C(F)(F)F)c2)n1CC1CCCCC1 [1/47]	–	–	–
6.4	6.4	631	Cc1c(C(=O)NCC(F)(F)F)cc(-c2cc(C(C)(C)C)c(O)c(C(C)(C)C)c2)n1CC1CCCCC1 [1/48]	–	–	–
6.2	6.6	31600	Cc1noc2ccc(-c3cc(C(N)=O)c(C)n3CC3CCCCC3)cc12 [1/49]	–	–	–
5.9	6.1	2510	Cc1c(C(=O)NS(C)(=O)=O)cc(-c2cc(C(C)(C)C)cc(C(C)(C)C)c2)n1CC1CCCCC1 [1/51]	–	–	–
–	–	–	Cc1c(C(=O)NC2COC2)cc(-c2cc(C(C)(C)C)cc(C(C)(C)C)c2)n1CC1CCCCC1 [1/53]	6.8/7.3/7.4	6.8/7.3/7.4	158
–	–	–	Cc1c(C(=O)NCCO)cc(-c2cc(C(C)(C)C)cc(C(C)(C)C)c2)n1CC1CCCCC1 [1/54]	6.4/6.3/6.4	6.4/6.3/6.4	398
–	–	–	Cc1c(C(=O)NCCN(C)C)cc(-c2cc(C(C)(C)C)cc(C(C)(C)C)c2)n1CC1CCCCC1 [1/56]	5.5/<4.7/<4.7	5.5/<4.7/<4.7	3160
–	–	–	Cc1c(C(=O)NC2(CO)CC2)cc(-c2cc(C(C)(C)C)cc(C(C)(C)C)c2)n1CC1CCCCC1 [1/58]	6.2/6.2/6.2	6.2/6.2/6.2	631
6.3	6.3	631	Cc1c(C(=O)NC[C@@H](C)O)cc(-c2cc(C(C)(C)C)cc(C(C)(C)C)c2)n1CC1CCCCC1 [1/59]	–	–	–
6.2	6.2	1000	Cc1c(C(=O)NC[C@H](C)O)cc(-c2cc(C(C)(C)C)cc(C(C)(C)C)c2)n1CC1CCCCC1 [1/60]	–	–	–
–	–	–	Cc1c(C(=O)NCCOC(C)C)cc(-c2cc(C(C)(C)C)cc(C(C)(C)C)c2)n1CC1CCCCC1 [1/62]	6.5/6.4/6.3	6.5/6.4/6.3	316
–	–	–	Cc1c(C(=O)NCCOCCO)cc(-c2cc(C(C)(C)C)cc(C(C)(C)C)c2)n1CC1CCCCC1 [1/63]	6.2/6.7/6.7	6.2/6.7/6.7	631
6.6	6.6	398	Cc1c(C(=O)NCCCO)cc(-c2cc(C(C)(C)C)cc(C(C)(C)C)c2)n1CC1CCCCC1 [1/65]	–	–	–

pIC50 (FF) (RORγ; [2])	pIC50 (REN) (RORγ; [3])	IC50 [1, 4] [nM]	SMILES	pIC50 (FF) (RORγ)	pIC50 (REN) (RORγ)	IC50 [1] [nM]
6.7	6.8	398	Cc1c(C(=O)NCCCCO)cc(-c2cc(C(C)(C)C)cc(C(C)(C)C)c2)n1CC1CCCCC1 [1/66]	–	–	–
6.7	6.8	1580	Cc1c(C(=O)NCCC(=O)O)cc(-c2cc(C(C)(C)C)cc(C(C)(C)C)c2)n1CC1CCCCC1 [1/68]	–	–	–
6.8	6.9	1580	Cc1c(C(=O)NCCCC(=O)O)cc(-c2cc(C(C)(C)C)cc(C(C)(C)C)c2)n1CC1CCCCC1 [1/69]	–	–	–
–	–	–	Cc1c(C(=O)NCCN2CCOCC2)cc(-c2cc(C(C)(C)C)cc(C(C)(C)C)c2)n1CC1CCCCC1 [1/70]	6.2/6.6/6.6	6.2/6.6/6.6	631
7.1	7.1	1000	Cc1c(C(=O)NCCCCCC(=O)O)cc(-c2cc(C(C)(C)C)cc(C(C)(C)C)c2)n1CC1CCCCC1 [1/72]	–	–	–
7.2	7.2	1260	Cc1c(C(=O)NCCCCC(=O)O)cc(-c2cc(C(C)(C)C)cc(C(C)(C)C)c2)n1CC1CCCCC1 [1/73]	–	–	–
–	–	–	Cc1c(C(=O)NCCCCN2CCOCC2)cc(-c2cc(C(C)(C)C)cc(C(C)(C)C)c2)n1CC1CCCCC1 [1/74]	5.3/<4.7/<4.7	5.3/<4.7/<4.7	5010
–	–	–	Cc1c(C(=O)NCCCCCN2CCOCC2)cc(-c2cc(C(C)(C)C)cc(C(C)(C)C)c2)n1CC1CCCCC1 [1/75]	5.31/<4.7<4.7	5.31/<4.7<4.7	4900
–	–	–	Cc1c(C(=O)NC2COC2)cc(-c2cc(C(C)(C)C)cc(C(F)(F)F)c2)n1CC1CCCCC1 [1/78]	6.5/7.1/7.1	6.5/7.1/7.1	316
7.5	7.5	200	Cc1c(C(=O)NC2COC2)cc(-c2cc(C3(C)CC3)cc(C3(C)CC3)c2)n1CC1CCCCC1 [1/80]	–	–	–
7.4	7.4	200	Cc1c(C(=O)NC2COC2)cc(-c2cc(C(C)(C)C)cc(C3(C)CC3)c2)n1CC1CCCCC1 [1/81]	–	–	–
–	–	–	Cc1c(C(=O)NCCCCCO)cc(-c2cc(C(C)(C)C)cc(C3(C)CC3)c2)n1CC1CCCCC1 [1/82]	6.8/7.4/7.4	6.8/7.4/7.4	158
–	–	–	Cc1c(C(=O)NC2CCOCC2)cc(-c2cc(C(C)(C)C)cc(C3(C)CC3)c2)n1CC1CCCCC1 [1/84]	6.8/7.6/7.6	6.8/7.6/7.6	158
–	–	–	Cc1c(C(=O)NCC(C)(C)O)cc(-c2cc(C(C)(C)C)cc(C3(C)CC3)c2)n1CC1CCCCC1 [1/87]	6.5/7.2/7.2	6.5/7.2/7.2	316
–	–	–	Cc1c(C(=O)NCCN2CCOCC2)cc(-c2cc(C(C)(C)C)cc(C3(C)CC3)c2)n1CC1CCCCC1 [1/88]	6.4/6.5/6.5	6.4/6.5/6.5	398
7.0	6.9	2000	Cc1c(C(=O)NCCC(=O)O)cc(-c2cc(C(C)(C)C)c3c(c2)C2(CCO3)CC2)n1CC1CCCCC1 [1/90]	–	–	–

SMILES	pIC50 (FF) (RORγ; [2])	pIC50 (REN) (RORγ; [3])	IC50 [1, 4] [nM]	pIC50 (FF) (RORγ)	pIC50 (REN) (RORγ)	IC50 [1] [nM]
CCc1cc(-c2cc(C(N)=O)c(C)n2CC2CCCCC2)cc2c1OCC2(C)C [1/50]	6.0	6.1	1580	–	–	–
Cc1c(C(=O)N2CCOCC2)cc(-c2cc(C(C)(C)C)cc(C(C)(C)C)c2)n1CC1CCCCC1 [1/52]	6.4	6.5	158	–	–	–
Cc1c(C(=O)NCC(=O)O)cc(-c2cc(C(C)(C)C)cc(C(C)(C)C)c2)n1CC1CCCCC1 [1/57]	5.8	5.8	2510	–	–	–
COCCNC(=O)c1cc(-c2cc(C(C)(C)C)cc(C(C)(C)C)c2)n(CC2CCCCC2)c1C [1/64]	6.5/6.5/6.5	6.5/6.5/6.5	316	–	–	–
Cc1c(C(=O)NCCCCCO)cc(-c2cc(C(C)(C)C)cc(C(C)(C)C)c2)n1CC1CCCCC1 [1/67]	7.2	7.3	158	–	–	–
Cc1c(C(=O)NCCCN2CCOCC2)cc(-c2cc(C(C)(C)C)cc(C(C)(C)C)c2)n1CC1CCCCC1 [1/71]	5.8	5.9	1260	–	–	–
Cc1c(C(=O)NC2COC2)cc(-c2cc(C(C)(C)C)c(F)c(C(C)(C)C)c2)n1CC1CCCCC1 [1/77]	6.9	7.0	200	–	–	–
Cc1c(C(=O)NC2COC2)cc(-c2cc(C(F)(F)F)cc(C3(C)CC3)c2)n1CC1CCCCC1 [1/79]	7.2	7.2	398	–	–	–
Cc1c(C(=O)NC2CC2)cc(-c2cc(C(C)(C)C)cc(C3(C)CC3)c2)n1CC1CCCCC1 [1/83]	6.9	7.0	316	–	–	–
Cc1c(C(=O)NCC(C)(C)C(N)=O)cc(-c2cc(C(C)(C)C)cc(C3(C)CC3)c2)n1CC1CCCCC1 [1/85]	7.7	7.7	316	–	–	–
Cc1c(C(=O)NCC2(C)COC2)cc(-c2cc(C(C)(C)C)cc(C3(C)CC3)c2)n1CC1CCCCC1 [1/86]	7.6	7.6	158	–	–	–
Cc1c(C(N)=O)cc(-c2cc(C(C)(C)C)cc(C3(C)CC3)c2)n1CC1CCCCC1 [1/89]	6.3	6.2	251	–	–	–
